Data on eight compounds can be found in US20260206761A1, “HETEROARYL-TRIAZOLE COMPOUNDS AS PESTICIDES” (Bayer Aktiengesellschaft, priority 2019, published 2026).

Assay type in all cases: in vivo
The test system of assay [1] is adult cat fleas (Ctenocephalides felis). Description: Ctenocephalides felis in-vitro contact test, adult cat flea. Particulars: application rate 5 μg/cm^2 (=500 g/ha), after 48 hours, read-out: activity (efficacy: fleas dead or moribund). The essentials:
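Acetone solutions of compound coated onto inner walls of glass tubes (900 ppm giving […]); after drying, 5-10 adult Ctenocephalides felis added and held at room temperature. At 48 h, fleas placed on a 45-50° C heating plate; those unable to climb away scored dead or moribund, expressed as % efficacy.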

Assay [2] concerns fall armyworm larvae (Spodoptera frugiperda). Briefly: Spodoptera frugiperda spray test. The following applies: 168 h, read-out: activity (mortality). In outline: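 Compound in acetone/DMF, diluted in water with 1000 ppm alkylarylpolyglycol ether emulsifier, sprayed on maize leaf sections. Dried leaves infested with fall armyworm larvae; % mortality after 7 days (100% = all killed, 0% = none).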

Assay [3] deals with green peach aphid (Myzus persicae). Briefly: Myzus persicae spray test. Particulars: 120 h, after 5 days; for mortality at 100 g/ha: application rate 100 g/ha; for mortality at 500 g/ha: application rate 500 g/ha. In outline:
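Chinese cabbage leaf disks carrying all instars of M. persicae sprayed with compound in acetone/DMF, diluted in water with 1000 ppm alkylarylpolyglycol ether emulsifier. Percent mortality scored after 5 days (100% = all aphids killed).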

The subject of assay [4] is Aedes aegypti strain MONHEIM. Description: Aedes aegypti test (AEDSAE surface treatment & contact assay). The following applies: 24 hours after contact, read-out: efficacy (mortality); for mortality at 4 mg/m2: surface concentration 4 mg/m^2, exposure 30 minutes; for mortality at 20 mg/m2: surface concentration 20 mg/m^2, exposure 30 minutes. In outline:
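Compound in acetone (2 mg/ml) with 2000 ppm RME pipetted onto glazed tile and dried; adult Aedes aegypti MONHEIM exposed 30 min. Percent mortality scored 24 h after contact.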

The test system of assay [5] is adult unfed cat fleas (Ctenocephalides felis). Briefly: Ctenocephalides felis oral test. The following applies: 48 h, read-out: activity (mortality). In outline: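 About 20 adult unfed fleas fed through parafilm on cattle blood containing compound (DMSO stock diluted in blood), blood held at 37 °C and fleas at room temperature. Mortality (%) scored after 2 days.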

Assay [6] deals with larvae of the southern green stink bug (Nezara viridula). Briefly: Nezara viridula spray test. The following applies: 96 h, after 4 days; for mortality at 100 g/ha: application rate 100 g/ha; for mortality at 500 g/ha: application rate 500 g/ha. In outline:
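Compound in acetone/dimethylformamide, diluted in water with 1000 ppm alkylarylpolyglycol ether emulsifier, sprayed onto barley plants carrying stink bug larvae. Mortality (%) scored after 4 days, 100% meaning all insects killed.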

In assay [7] the test system is Rhipicephalus microplus larvae (strain Parkhurst, resistant against synthetic pyrethroids). Description: Rhipicephalus (Boophilus) microplus in-vitro contact test, larval cattle tick. Particulars: after 48 hours, read-out: activity (efficacy: larvae dead or moribund); for pest or weed control at 100 g/ha: application rate 1 pg/cm^2 (=100 g/ha); for pest or weed control at 500 g/ha: application rate 5 pg/cm^2 (=500 g/ha). In outline: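 Acetone solutions coated onto inner walls of glass tubes by rotation (900 ppm giving 5 μg/cm^2); after evaporation, 20-50 larvae added per tube and held at 27° C., 85% relative humidity. Efficacy read after 48 h from negative geotactic behaviour; 100% = all larvae dead or moribund.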

The subject of assay [8] is larvae of the banded cucumber beetle (Diabrotica balteata). Description: Diabrotica balteata spray test. Particulars: 168 h, after 7 days, read-out: activity (efficacy: seedlings grown); for pest or weed control at 100 g/ha: application rate 100 g/ha (=32 pg/well); for pest or weed control at 500 g/ha: application rate 500 g/ha (=160 pg/well). In outline:
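Wheat seedlings, germinated 1 day on agar (5 seeds/well), sprayed with active compound in acetone/DMF diluted in water containing 1000 ppm emulsifier, then infested with 10-20 D. balteata larvae. Efficacy (%) scored after 7 days: 100% = seedlings grown as untreated uninfested control, 0% = no seedlings grown.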

As usually defined, the mortality is the share of the test organisms that died. `C[C@H](NC(=O)c1cc(C#N)cc(C2CC2)c1)c1ncnn1-c1ncccn1` [II-54]: in assay [1], the pest or weed control at 5 µg/cm2 stood at 100%. Moreover, the mortality at 100 g/ha was 83% in assay [2], 100% in assay [3] and 100% in assay [6]. Also, the mortality at 4 mg/m2 in assay [4] is 80 to 100%. Besides, in assay [4], the mortality at 20 mg/m2 was 80 to 100%. Besides, the mortality at 100 ppm in assay [5] came out at 100%. Also, the figures for the pest or weed control at 100 g/ha in assay [7] and in assay [8] were 90% and 100%, respectively. For the same compound, in assay [7], the pest or weed control at 500 g/ha was 80%.

On to `C[C@H](NC(=O)c1cc(C(F)(F)F)cc(C2(C#N)CC2)c1)c1ncnn1-c1ccc(Cl)cn1` [II-48], for which the pest or weed control at 5 µg/cm2 in assay [1] turned out to be 90%. For the same compound, the mortality at 100 g/ha in assay [2], in assay [3] and in assay [6] was 100% throughout. Moreover, the mortality at 4 mg/m2 in assay [4] was 80 to 100%. The mortality at 20 mg/m2 in assay [4] fell in the range of 80 to 100%. The mortality at 100 ppm in assay [5] turned out to be 100%. Moreover, the pest or weed control at 100 g/ha in assay [7] and in assay [8] was 100% throughout. Besides, the pest or weed control at 500 g/ha in assay [7] worked out at 100%.

For the compound `Cc1nc([C@H](C)NC(=O)c2cc(Cl)cc(S(=O)(=O)C(F)F)c2)n(-c2ccc(Cl)cn2)n1` [II-36], in assay [1], the pest or weed control at 5 µg/cm2 turned out to be 100%. Moreover, in assay [2], the mortality at 100 g/ha is 100% and the mortality at 500 g/ha amounted to 100%. This compound registered a mortality at 500 g/ha in assay [3] of 90%. In assay [4], the mortality at 4 mg/m2 fell in the range of 80 to 100% and the mortality at 20 mg/m2 was in the range of 80 to 100%. In assay [5], the mortality at 100 ppm is 100%. Further, in assay [6], the mortality at 100 g/ha stood at 100% and the mortality at 500 g/ha came out at 100%. In addition, in assay [7], the pest or weed control at 100 g/ha turned out to be 100% and the pest or weed control at 500 g/ha amounted to 100%. In addition, in assay [8], the pest or weed control at 100 g/ha turned out to be 100% and the pest or weed control at 500 g/ha stood at 100%.

On to `C[C@H](NC(=O)c1cc(Cl)cc(S(=O)(=O)C(F)F)c1)c1ncnn1-c1ncccn1` [II-34], for which the pest or weed control at 5 µg/cm2 in assay [1] was found to be 100%. For the same compound, the values for the mortality at 100 g/ha in assay [2], in assay [3] and in assay [6] were 83%, 100% and 100%, respectively. The mortality at 500 g/ha in assay [2], in assay [3] and in assay [6] was 100% throughout. In addition, in assay [4], the mortality at 4 mg/m2 fell in the range of 80 to 100%. Further, the mortality at 20 mg/m2 in assay [4] was 80 to 100%. Further, in assay [5], the mortality at 100 ppm turned out to be 100%. Further, the pest or weed control at 100 g/ha in assay [7] and in assay [8] was 100% each time. In addition, the pest or weed control at 500 g/ha in assay [7] turned out to be 90%; in assay [8], 100%.

As to `C[C@H](NC(=O)c1cc(C#N)cc(S(C)(=O)=O)c1)c1ncnn1-c1ccc(Cl)cn1` [II-29], the pest or weed control at 5 µg/cm2 in assay [1] was found to be 100%. In assay [2], the mortality at 100 g/ha came to 83% and the mortality at 500 g/ha was 100%. Also, in assay [3], the mortality at 100 g/ha came to 90% and the mortality at 500 g/ha came out at 100%. For the same compound, in assay [4], the mortality at 4 mg/m2 lay within 80 to 100% and the mortality at 20 mg/m2 was 80 to 100%. In addition, the mortality at 100 ppm in assay [5] amounted to 100%. In assay [6], this compound yielded a mortality at 100 g/ha of 100% and a mortality at 500 g/ha of 100%. In assay [7], the pest or weed control at 100 g/ha was 100% and the pest or weed control at 500 g/ha was 100%. Besides, the pest or weed control at 500 g/ha in assay [8] stood at 100%.

`C[C@H](NC(=O)c1cc(C(F)(F)F)cc(C2(C#N)CC2)c1)c1ncnn1-c1ccc(C#N)cn1` [II-47]: the pest or weed control at 5 µg/cm2 in assay [1] is 100%. Moreover, the mortality at 100 g/ha in assay [2], in assay [3] and in assay [6] was 100% each time. For the same compound, in assay [4], the mortality at 4 mg/m2 fell in the range of 80 to 100%. For the same compound, the mortality at 20 mg/m2 in assay [4] was 80 to 100%. Moreover, the mortality at 100 ppm in assay [5] is 100%. Besides, the pest or weed control at 100 g/ha in assay [7] and in assay [8] was 100% each time. Further, in assay [7], the pest or weed control at 500 g/ha worked out at 100%.

Turning to `C[C@H](NC(=O)c1cc(Cl)cc(S(=O)(=O)C2CC2)c1)c1nc(C2CC2)nn1-c1ncc(Cl)cn1` [I-25], the pest or weed control at 5 µg/cm2 in assay [1] was found to be 100%. In addition, the mortality at 100 g/ha in assay [2], in assay [3] and in assay [6] was 100% in each case. Further, in assay [4], the mortality at 4 mg/m2 lay in the range of 80 to 100%. Further, the mortality at 20 mg/m2 in assay [4] fell in the range of 80 to 100%. In addition, in assay [5], the mortality at 100 ppm was found to be 100%. Further, the pest or weed control at 100 g/ha in assay [7] and in assay [8] was 100% in each case. The pest or weed control at 500 g/ha in assay [7] is 100%.

As to `Cc1nc([C@H](C)NC(=O)c2cc(C(F)(F)F)cc(S(C)(=O)=O)c2)n(-c2ccc(C#N)cn2)n1` [II-52], the pest or weed control at 5 µg/cm2 in assay [1] turned out to be 100%. The mortality at 100 g/ha in assay [2] turned out to be 100%; in assay [3] it was 90%; in assay [6], 100%. The mortality at 4 mg/m2 in assay [4] was in the range of 80 to 100%. Also, the mortality at 20 mg/m2 in assay [4] was 80 to 100%. The mortality at 100 ppm in assay [5] came out at 100%. Besides, the pest or weed control at 100 g/ha in assay [7] and in assay [8] was 100% in each case. In addition, in assay [7], the pest or weed control at 500 g/ha was determined as 100%.
